This is an account of results in US11839212B2, “Synergistic pesticidal compositions and methods for delivery of insecticidal active ingredients” (0903608 B.C. Ltd., priority 2018, dated 2023).

Read-outs that look alike come from different tables or passages of the source.

Experiment in all cases: Synergistic Growth Inhibition Assay (MIC and FIC index, 96-well, resazurin)
What all share (type): cell-based

Test [1] deals with Fusarium oxysporum. The settings on record: Fusarium oxysporum, Compound B alone. The procedure, abridged: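 Checkerboard dilutions of pesticidal active plus C6–C10 (or C11/C12) aliphatic acid in 96-well plates; growth scored by resazurin colour change, optionally visual.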
For test [2], the system named is Botrytis cinerea. The settings on record: Botrytis cinerea, 48 h, Compound B alone. The procedure, abridged:
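Checkerboard microdilution of pesticidal active ingredient combined with C6–C10 (or C11/C12) aliphatic acid against Botrytis cinerea, with growth read by resazurin colour change plus visual check. FIC index = sum of each agent's concentration in the inhibiting well divided by its MIC alone; 1 denotes additivity.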

For test [3], the system named is Sclerotinia sclerotiorum. The settings on record: Sclerotinia sclerotiorum, […], Compound B alone. The essentials:
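Checkerboard of pesticidal active ingredient combined with C6–C10 (or C11/C12) aliphatic acids in serial dilutions against Sclerotinia sclerotiorum. Growth scored by resazurin colour change plus visual inspection; FIC index is the sum of each agent's concentration divided by its MIC alone, with 1 indicating additivity.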

Test [4] deals with Alternaria solani. The settings on record: Alternaria solani, […], read-out: MIC (B). How it is done: In some embodiments, the synergistic action between the pesticidal active ingredient, and the at least one C6-C10 (or alternatively C11 or C12) saturated or unsaturated aliphatic acid components of the pesticidal compositions according to embodiments of the present disclosure was tested using a Synergistic Growth Inhibition Assay, which is derived from and related to a checkerboard assay as is known in the art for testing of combinations of antimicrobial agents. In the Synergistic Growth Inhibition Assay used in accordance with some embodiments of the present disclosure, multiple dilutions of combinations of pesticidal active ingredient and at least one C6-C10 saturated or unsaturated aliphatic acid agents are tested in individual cells for inhibitory activity against a target pest or pathogenic organism. In one such embodiment, the combinations of pesticidal active ingredient and C6-C10 (or alternatively C11 or C12) saturated or unsaturated aliphatic acid agents may preferably be tested in decreasing concentrations. In a further such embodiment, the combinations of pesticidal active ingredient and C6-C10 (or alternatively C11 or C12) saturated or unsaturated aliphatic acid agents may be tested in increasing concentrations. These multiple combinations of the pesticidal active ingredient and at least one C6-C10 (or alternatively C11 or C12) saturated or unsaturated aliphatic acid agents may be prepared in 96-well microtiter plates. In one such embodiment, the Synergistic Growth Inhibition Assay then comprises rows which each contain progressively decreasing concentrations of the pesticidal active ingredient and one or more C6-C10 (or alternatively C11 or C12) saturated or unsaturated aliphatic acid agents to test for the MIC of the agents in combination at which growth of the target pest or pathogen is inhibited. Thus, each well of the microtiter plate is a unique combination of the two agents, at which inhibitory efficacy of the combination against the target pest or pathogen can be determined.
In one embodiment according to the present disclosure, for each row of microtiter cells in the Synergistic Growth Inhibition Assay, the FIC index is calculated from the lowest concentration of the pesticidal active ingredient and one or more C6-C10 saturated or unsaturated aliphatic acid agents necessary to inhibit growth of a target pest or pathogen. The FIC of each component is derived by dividing the concentration of the agent present in that well of the microtiter plate by the minimal inhibitory concentration (MIC) needed of that agent alone to inhibit growth of the target pest or pathogen. The FIC index is then the sum of these values for both agents in that well of the microtiter plate. […] Fractional inhibitory concentration indices may then used as measure of synergy. […] When the FIC index is equal to 1, the combination is additive.
Then, serial dilutions of these initial compositions in successive wells in the row of the microtiter plate were used to assay the pesticidal composition under the same conditions to determine the concentration of the composition combining the two agents corresponding to the microtiter well in which growth inhibition of the target pest or organism ceases.
A culture of the representative fungal pathogen, namely Fusarium oxysporum, Botrytis cinerea, or Sclerotinia sclerotiorum, for example, is grown to exponential phase in potato dextrose broth (PDB).

[5] abbreviates: 48 h, Table 15B, incubation 48 hours, read-out: MIC (B).
Setting [6] is: Table 51, 48 hours incubation, read-out: MIC (B).
The mark [7] stands for this setting: Table 56, 48 hours incubation, read-out: MIC (B).
Setting [8] is: Table 59, 48 hours incubation, read-out: MIC (B).
The mark [9] stands for this setting: Table 16, incubation 7 days, read-out: MIC (B).
Setting [10] is: Table 20B, incubation 7 days, read-out: MIC (B).
Where [11] appears, read: Compound B alone, 7 days incubation.
Where [12] appears, read: 7 days incubation, read-out: MIC (B).
Where [13] appears, read: Table 60, Compound B alone, 7 days incubation.
[14] abbreviates: 48 h, Table 32, 48 hours incubation, read-out: MIC (B).
The mark [15] stands for this setting: Table 43, 48 hours incubation, read-out: MIC (B).
The mark [16] stands for this setting: Table 44, 48 hours incubation, read-out: MIC (B).
Setting [17] is: Table 45, 48 hours incubation, read-out: MIC (B).
[18] abbreviates: Table 47, 48 hours incubation, read-out: MIC (B).
Setting [19] is: Table 48, 48 hours incubation, read-out: MIC (B).
[20] abbreviates: Table 49, 48 hours incubation, read-out: MIC (B).
Setting [21] is: Table 50, 48 hours incubation, read-out: MIC (B).
Setting [22] is: Table 58, 48 hours incubation, read-out: MIC (B).
Setting [23] is: Table 33, 7 days incubation, read-out: MIC (B).
Setting [24] is: Table 38, 7 days incubation, read-out: MIC (B).
Setting [25] is: Table 39, 7 days incubation, read-out: MIC (B).
Where [26] appears, read: Table 41, 7 days incubation, read-out: MIC (B).
The mark [27] stands for this setting: 48 h, Table 27, 48 hours incubation, read-out: MIC (B).
The mark [28] stands for this setting: Table 54, 48 hours incubation, read-out: MIC (B).
Setting [29] is: Table 35, 7 days incubation, read-out: MIC (B).

For the compound `CCCC(O)CC(=O)O` (centres unmarked) [3-Hydroxyhexanoic acid, 3-hydroxyhexanoic acid], the minimum inhibitory concentration (MIC) – broadly, the lowest concentration found to suppress growth – is 2500 µg/mL in test [1] (setting [5]); 2500 µg/mL in test [2] (setting [6]); 5000 µg/mL in test [2] (setting [7]); 2500 µg/mL in test [2] (setting [8]); 5000 µg/mL in test [3] (setting [9]); 2500 µg/mL in test [3] (setting [10]). Moreover, the minimum inhibitory concentration (MIC) in test [4] (setting [11]) worked out at 2500 µg/mL.

On to `CCCCCCCCC(=O)O` [Nonanoic acid, nonanoic acid], for which the minimum inhibitory concentration (MIC) in test [1] (48 h, Table 12, incubation 48 hours, read-out: MIC (B)) was 312 µg/mL; in test [2] (Table 24, 48 hours incubation, read-out: MIC (B)), 156 µg/mL; in test [3] (setting [12]) it was 39.1 µg/mL; in test [3] (setting [9]), 19.5 µg/mL; in test [3] (Table 17, incubation 7 days, read-out: MIC (B)), 78.1 µg/mL; in test [3] (Table 19, incubation 7 days, read-out: MIC (B)) it was 78.1 µg/mL. Further, the MIC in test [3] (Table 20A, incubation 7 days, read-out: MIC (B)) was 39.1 µg/mL; in test [4] (setting [13]), 156 µg/mL.

`CCCCCCCC/C=C/C(=O)O` [Trans-2-undecenoic acid]: the MIC is 156 µg/mL in test [1] (setting [14]); 156 µg/mL in test [2] (setting [15]); 78.1 µg/mL in test [2] (setting [16]); 78.1 µg/mL in test [2] (setting [17]); 78.1 µg/mL in test [2] (setting [18]); 78.1 µg/mL in test [2] (setting [19]). Besides, the MIC in test [2] (setting [20]) came to 78.1 µg/mL; in test [2] (setting [21]), 39.1 µg/mL; in test [2] (setting [7]) it was 39.1 µg/mL; in test [2] (setting [22]), 156 µg/mL; in test [3] (setting [23]), 19.5 µg/mL; in test [3] (setting [24]) it was 39.1 µg/mL. The MIC in test [3] (setting [25]) amounted to 39.1 µg/mL; in test [3] (setting [26]) it was 39.1 µg/mL; in test [4] (setting [13]) it was 156 µg/mL.

`C=CCCCCCCCC(=O)O` [9-Decenoic acid, 9-decenoic acid]: the minimum inhibitory concentration (MIC) in test [1] (24 h, Table 3, 24 hour incubation, read-out: MIC(B)) was determined as 71.7 µg/mL; in test [1] (24 h, Table 4, 24 hour incubation, read-out: MIC (B)), 71.7 µg/mL; in test [1] (setting [27]), 312 µg/mL; in test [1] (48 h, Table 28, 48 hours incubation, read-out: MIC (B)) it was 312 µg/mL; in test [1] (48 h, Table 30, 48 hours incubation, read-out: MIC (B)), 156 µg/mL; in test [1] (setting [14]), 78.1 µg/mL. Besides, the minimum inhibitory concentration (MIC) in test [2] (setting [15]) stood at 156 µg/mL; in test [2] (setting [16]), 78.1 µg/mL; in test [2] (setting [17]), 78.1 µg/mL; in test [2] (Table 46, 48 hours incubation, read-out: MIC (B)) it was 39.1 µg/mL; in test [2] (setting [18]), 78.1 µg/mL; in test [2] (setting [19]) it was 78.1 µg/mL. Further, the MIC was 156 µg/mL in test [2] (setting [20]); 39.1 µg/mL in test [2] (setting [21]); 78.1 µg/mL in test [2] (setting [28]); 78.1 µg/mL in test [2] (setting [7]); 156 µg/mL in test [2] (setting [22]); 78.1 µg/mL in test [3] (setting [12]). The MIC in test [3] (setting [23]) worked out at 39.1 µg/mL; in test [3] (setting [29]), 39.1 µg/mL; in test [3] (Table 36, 7 days incubation, read-out: MIC (B)) it was 39.1 µg/mL; in test [3] (Table 37, 7 days incubation, read-out: MIC (B)) it was 156 µg/mL; in test [3] (setting [24]), 78.1 µg/mL; in test [3] (setting [25]), 39.1 µg/mL. Also, the minimal inhibitory concentration (MIC) was determined as 78.1 µg/mL in test [3] (Table 40, 7 days incubation, read-out: MIC (B)); 78.1 µg/mL in test [3] (setting [26]); 39.1 µg/mL in test [4] (setting [13]).

For the compound `CC(O)CC(=O)O` (centres unmarked) [3-Hydroxybutyric acid, 3-hydroxybutyric acid], the MIC in test [1] (48 h, Table 10, incubation 48 hours, read-out: MIC (B)) amounted to 10000 µg/mL; in test [1] (setting [5]) it was 10000 µg/mL; in test [2] (setting [6]) it was 10000 µg/mL; in test [2] (setting [7]) it was 10000 µg/mL; in test [2] (setting [8]) it was 5000 µg/mL; in test [3] (setting [9]), 10000 µg/mL. The MIC in test [3] (setting [10]) and in test [4] (setting [11]) was 5000 µg/mL in each case.

For `C=CCCCC(=O)O` [5-Hexenoic acid], the minimum inhibitory concentration (MIC) in test [1] (setting [27]) was 312 µg/mL; in test [2] (setting [15]), 156 µg/mL; in test [2] (setting [16]), 78.1 µg/mL; in test [2] (setting [17]), 312 µg/mL; in test [2] (setting [21]), 156 µg/mL; in test [2] (setting [28]), 312 µg/mL. The MIC in test [3] (setting [23]) is 156 µg/mL; in test [3] (setting [29]), 156 µg/mL; in test [4] (setting [13]) it was 312 µg/mL.

Regarding `CCCCCC(=O)O` [Hexanoic acid, hexanoic acid], the minimum inhibitory concentration (MIC) in test [1] (24 h, read-out: MIC(B), Table 7, 24 hour incubation) worked out at 145 µg/mL; in test [1] (read-out: MIC (B), Table 8), 290 µg/mL; in test [2] (read-out: MIC (B), Table 21, incubation 48 hours) it was 78.1 µg/mL; in test [2] (read-out: MIC (B), Table 22, incubation 48 hours), 78.1 µg/mL; in test [2] (read-out: MIC (B), Table 25, 48 hours incubation) it was 78.1 µg/mL; in test [3] (read-out: MIC (B), Table 16, incubation 7 days), 39.1 µg/mL. The MIC in test [3] (read-out: MIC (B), Table 17, incubation 7 days) was found to be 39.1 µg/mL; in test [3] (read-out: MIC (B), Table 19, incubation 7 days), 78.1 µg/mL; in test [4] it was 156 µg/mL.
